Test results from US6716411B2, “Method for finding nucleotide synthesis inhibitors having fewer side effects” (Aventis Pharma Deustschland GmbH, priority 1999, dated 2004).

Test system: pemphigus vulgaris
Assay: Observation of leflunomide treatment in humans
Type: in vivo
Settings: one patient
Experimental: This diarrhea adversely affected the quality of life of the patient. Because of the problems caused by this side effect, an attempt was made, after more than two years' therapy with a constant dose of 20 mg of leflunomide per day, to end the therapy.
This observation was surprising, as the active metabolite of leflunomide, compound 1, has a half-life of approximately 14 days in humans. Furthermore, in this patient the blood levels of the active metabolite of leflunomide were repeatedly determined in the relatively high range between 70 mg/l and 85 mg/l.

SMILES: Cc1oncc1C(=O)Nc1ccc(C(F)(F)F)cc1 [leflunomide, N-(4-trifluoromethylphenyl)-5-methylisoxazole-4-carboxamide]
- side effect of treatment (20 mg of leflunomide per day): permanent diarrhea
- symptoms of pemphigus vulgaris under therapy (20 mg of leflunomide per day): completely disappeared
- pemphigus vulgaris four days following discontinuation (after more than two years' therapy): occurred again severely
